Laboratory results published in paper PMC6630837 (Pharmaceuticals, 2019).
Entries after “also recorded” stand apart in the source; their conditions may differ.

Legend:
[1] = target: T1, butyrylcholinesterase (BuChE) (Equus caballus, UniProt P81908); assay: biochemical; conditions: read-out: BuChE inhibitory efficacy (percentage of inhibition)
T1 construct: (BuChE, equine serum); from tissue; host or cells: equine serum
Procedure: Experimental procedures for cholinesterase inhibition a s sa y s. For cholinesterase inhibition tests (acetylcholinesterase (AChE, electrophorus
el ec t r ic u s) a n d b ut yr ylcholinesterase (BuChE, equine serum), the Ellman’s cholorimetric assay1 was followed, with minor modifications. DMSO
was kept within 1.25% cuvette concentration. The chromogenic agent DTNB [5,5’-dithiobis(2-nitrobenzoic acid)] was fixed at 0.975 mM
con centration; 0. 1 M phosphate buffer (pH 8. 0) was employed, T = 25 °C, and the reaction was monitored for 125 s. […]
of inhibition, the substrate concentration (acetylthiocholine iodide for AChE; S- butyr ylthiocholine iodide for BuChE) was fixed at 29 µM for
AChE and at 18.2 µM concentration for BuChE.
Lineweaver-Burk plot (or double reciprocal plot, 1/V vs . 1/ [S ]) wa s u se d for estimating both, the mode of inhibition and the inhibition constants […]
Competitive inhibition (inhibitor only bonds the free enzyme):
KKiiii = [II ]KKMM iiaaaa
M i xe d inhibition (inhibitor binds both, the free and the complexed enzyme) :
Uncompetitive (the inhibitors only binds the complexed enzyme):
N on -competitive (inhibitor binds both the free enzyme and the complexed enzyme with equal affinity) :
Table S3. […]
of the synthesized flavone analogues at 100 µ M.
C omp ou n d N o. AChE B uChE

[2] = test system: SH-SY5Y human neuroblastoma cells; assay: Neuroprotection against Aβ1-42-induced toxicity, MTT cell viability assay; type: cell-based; conditions: 50 μM compound, 20 μM Aβ1-42, 24 h, 37 °C
Procedure: Neuroprotective activity assays against Aβ1-42-induced toxicity. From all compounds tested in the above presented assay, the pair 8 and 19 presented the strongest neuroprotective potential, with convincing proof on the importance of the aglycone for the desired neuroprotective effects against H2O2-induced cell injury. […] Here, the MTT assay was used once again to assess cell viability of SH-SY5Y cells treated with 20 μM of Aβ1-42, in the presence of 50 μM of each compound. Similar protocols have been used to screen candidates for AD therapy. Moreover, based on the existing evidence that in situ spontaneous fibrillization of Aβ1-42 in the incubation mixture is important in the triggering of neurotoxic effects, we added the Aβ1-42 peptide fragment dissolved in DMSO to the culture medium prior to incubation, together with each compound in study. […] Even though there is published evidence that undifferentiated SH-SY5Y cells are not as sensitive to Aβ1-42-induced neurite degeneration and apoptosis as differentiated ones, with 20 μM of Aβ1-42 we were able to observe a significant decrease in cellular MTT reduction capacity, corresponding to roughly half of the cell viability rates observed in the non-treated control.
(§1) Neuroprotective assays in human neuroblastoma (SH-SY5Y) cells. […] Differences were considered significant when P < 0.05.

[3] = target: acetylcholinesterase (AChE) (Electrophorus electricus, UniProt O42275); assay: Acetylcholinesterase inhibition, Ellman's colorimetric assay; type: biochemical; conditions: 100 µM compound
acetylcholinesterase (AChE), sequence (O42275 24-633): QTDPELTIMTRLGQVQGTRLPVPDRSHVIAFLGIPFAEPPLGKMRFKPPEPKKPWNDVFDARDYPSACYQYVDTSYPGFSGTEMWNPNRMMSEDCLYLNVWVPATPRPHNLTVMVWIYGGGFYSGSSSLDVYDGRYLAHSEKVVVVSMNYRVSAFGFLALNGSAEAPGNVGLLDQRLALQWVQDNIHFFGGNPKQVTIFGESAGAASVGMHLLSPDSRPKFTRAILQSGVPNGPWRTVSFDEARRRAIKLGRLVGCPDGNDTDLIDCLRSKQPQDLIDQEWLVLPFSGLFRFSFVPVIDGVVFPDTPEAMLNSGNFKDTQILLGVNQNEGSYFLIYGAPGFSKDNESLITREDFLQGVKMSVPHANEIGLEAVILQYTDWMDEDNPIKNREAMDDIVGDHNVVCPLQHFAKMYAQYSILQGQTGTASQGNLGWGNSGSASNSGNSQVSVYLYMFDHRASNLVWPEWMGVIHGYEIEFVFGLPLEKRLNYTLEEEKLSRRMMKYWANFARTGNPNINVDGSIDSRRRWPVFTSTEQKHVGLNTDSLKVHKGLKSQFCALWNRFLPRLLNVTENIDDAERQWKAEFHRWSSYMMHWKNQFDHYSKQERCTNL
Procedure: For cholinesterase inhibition tests (acetylcholinesterase (AChE, electrophorus
was kept within 1.25% cuvette concentration.
AChE and at 18.2 µM concentration for BuChE. […]

[4] = test system: SH-SY5Y neuroblastoma cells; assay: Cytotoxic activity of compounds alone, MTT cell viability assay; conditions: 50 μM compound alone, 24 h, 37 °C, 0.5% DMSO, SH-SY5Y
Procedure: Neuroprotective assays in human neuroblastoma (SH-SY5Y) cells. SH-SY5Y cells were grown in Dulbecco’s Modified Eagle Medium (DMEM, Gibco, Life Technologies) supplemented with 10% fetal bovine serum (FBS, Biochrom GmbH) and 1% Penicillin-Streptomycin (Gibco, Life Technologies) in a humidified incubator at 37 °C, 5% CO2. For the neuroprotective activity assay, undifferentiated SGSY-5Y cells were plated onto 96-well flat-bottomed microtiter plates at a density of 1 × 10^4 cells/well in DMEM supplemented with 2% FBS and preincubated for 24 h at 37 °C, 5% CO2. Compounds (stored as 10 mM solutions in DMSO at −20 °C) were then added to achieve a final concentration of 50 μM and, after 30 min, cells were incubated in the presence or absence of 20 μM Aβ protein fragment 1-42 (Sigma-Aldrich, dissolved in DMSO and stored in 2 mM aliquots at −20 °C) or 100 μM of H2O2 (Sigma-Aldrich, dissolved to 10 mM in 0.9% NaCl aqueous solution immediately prior to the assay) overnight at 37 °C, 5% CO2. […] The following morning, 20 μL of a 5 mg/mL solution of 3-(4,5-dimethylthiazol-2-yl)-2,5-diphenyltetrazolium bromide (MTT, Sigma-Aldrich) in PBS (Gibco, Life Technologies) was added to each well and the plates were further incubated for 4 h at 37 °C, followed by the addition of DMSO (200 μL) to each well in order to dissolve the resulting formazan crystals. After 2 h incubating at 37 °C, the optical density (OD) at 540 nm (with a 620 nm reference filter) was measured in an Amersham Biosciences Biotrak II Plate Reader. The percentage of MTT reduction was determined according to Equation (1). […] Differences between experimental conditions were compared for statistical significance by one-way ANOVA followed by a Tukey’s post-test, an analysis carried out using GraphPad Prism Software (LA Jolla, CA, USA). Differences were considered significant when P < 0.05. In order to exclude direct MTT reduction, compounds were also tested in (a) the absence of cells and (b) in the absence of both cells and culture medium, using the same experimental conditions described above. (2) MTT Reduction (% of Control)=[ODsample−ODmedium/ODcell control−ODmedium] × 100 […]
Tabl e S2. Cytotoxic activity of each compound assessed in SH-SY5Y neuroblastoma cells via an MTT cell viability assay.a Comp ound Nr. MTT reduction (% control) p-va l u e vs . untreated cell control (unpai red t-t es t) […]
a Cells were incubated for 24 h at 37 °C, in the presence (50 μM) or absence of each compound.

[5] = LogD7.4 determination (octan-1-ol/phosphate buffer, LC-MS); type: physicochemical; conditions: octan-1-ol/phosphate buffer, pH 7.4, octan-1-ol/phosphate buffer pH 7.4, 25 °C; read-out: Log D7.4 (partition coefficient at pH 7.4)
Procedure: LogD7.4 determination. The in-silico prediction tool ALOGPS [4] was used to estimate the octanol-water partition coefficients (log P) of the compounds. […] For each category, two different ratios (volume of octan-1-ol to volume of buffer) were defined as experimental parameters (Table 2).
Equal amounts of phosphate buffer (0.1 M, pH 7.4) and octan-1-ol were mixed and shaken vigorously for 5 min to saturate the phases. The mixture was left until separation of the two phases, and the buffer was retrieved. Stock solutions of the test compounds were diluted with buffer to a concentration of 1 μM. For each compound, three determinations per octan-1-ol:buffer ratio were performed in different wells of a 96-well plate. The respective volumes of buffer-containing analyte (1 μM) were pipetted to the wells and covered by saturated octan-1-ol according to the chosen volume ratio. […] The aqueous phase was transferred to a 96-well plate for analysis by liquid chromatography-mass spectrometry (LCMS, see below).
Results are presented as the mean ± SD of three independent experiments.
LC-MS measurements. […] The system was controlled with the Agilent MassHunter Workstation Data Acquisition software (version B.01.04). The column used was an AtlantisR T3 C18 column (2.1 × 50 mm) with a 3 μm-particle size (Waters Corp., Milford, MA, USA). The mobile phase consisted of eluent A: 10 mM ammonium acetate, pH 5.0 in 95:5, H2O:MeCN; and eluent B: MeCN containing 0.1% formic acid. The flow rate was maintained at 0.6 mL/min. […] MS parameters such as fragmentor voltage, collision energy, and polarity were optimized individually for each drug, and the molecular ion was followed for each compound in the multiple reaction monitoring mode. The concentrations of the analytes were quantified by the Agilent Mass Hunter Quantitative Analysis software (version B.01.04).

[6] = test system: SH-SY5Y human neuroblastoma cells; assay: Neuroprotection against H2O2-induced toxicity, MTT cell viability assay; type: cell-based; conditions: 50 μM compound, 100 μM H2O2, 24 h, 37 °C
From the text: Neuroprotective activity assays against H2O2-induced toxicity. On the basis of previously described protocols, the flavones and analogues herein synthesized were screened for their neuroprotective effects against H2O2-induced oxidative stress and neuronal damage in SH-SY5Y human neuroblastoma cells by means of a thiazolyl blue tetrazolium bromide (MTT) reduction-based cell viability assay.
as §1

[7] = type: in vitro ADME; conditions: PAMPA, pH 7.4, 16 h
Procedure: Parallel artificial membrane permeability assay (PAMPA). Effective permeability (log Pe) was determined in a 96-well format with PAMPA [34]. For each compound, measurements were performed at pH 7.4 in quadruplicates. Four wells of a deep well-plate were filled with 650 μL of PRISMA HT universal buffer, adjusted to pH 7.4 by adding the requested amount of NaOH (0.5 M). Samples (150 μL) were withdrawn from each well to determine the blank spectra by UV/Vis-spectroscopy (190 to 500 nm, SpectraMax 190, Molecular Devices, Silicon Valley, CA, USA). Then the analyte, dissolved in DMSO (10 mM), was added to the remaining buffer to yield 50 μM solutions. To exclude precipitation, the optical density (OD) was measured at 650 nm, and solutions exceeding OD 0.01 were filtrated. Afterwards, samples (150 μL) were withdrawn to determine the reference spectra. […] The filter membranes at the bottom of the acceptor plate were infused with 5 μL of GIT-0 Lipid Solution and 200 μL of Acceptor Sink Buffer were filled into each acceptor well. The sandwich was assembled, placed in the GutBox^TM, and left undisturbed for 16 h. Then, it was disassembled and samples (150 μL) were transferred from each donor and acceptor well to UV-plates for determination of the UV/Vis spectra.

T1 sequence (P81908 whole entry): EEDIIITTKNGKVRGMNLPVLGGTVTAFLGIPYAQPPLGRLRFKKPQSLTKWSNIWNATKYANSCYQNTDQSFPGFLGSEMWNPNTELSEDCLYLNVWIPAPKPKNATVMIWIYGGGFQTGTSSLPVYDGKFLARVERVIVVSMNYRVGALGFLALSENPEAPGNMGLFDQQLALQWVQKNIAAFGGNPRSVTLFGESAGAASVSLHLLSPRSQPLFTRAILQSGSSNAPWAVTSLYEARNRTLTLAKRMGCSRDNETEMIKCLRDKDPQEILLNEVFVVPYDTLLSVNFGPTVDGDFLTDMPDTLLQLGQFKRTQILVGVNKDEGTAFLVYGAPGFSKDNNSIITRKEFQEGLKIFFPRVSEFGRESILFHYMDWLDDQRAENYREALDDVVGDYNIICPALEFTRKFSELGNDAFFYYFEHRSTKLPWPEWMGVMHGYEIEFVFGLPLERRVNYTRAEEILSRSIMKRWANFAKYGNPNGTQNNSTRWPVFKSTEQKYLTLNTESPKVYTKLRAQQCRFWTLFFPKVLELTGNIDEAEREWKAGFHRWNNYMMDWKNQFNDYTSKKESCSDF

Compound | inhibition at 100 µM [1] [%] | Neuroprotective effect against Aβ1-42-induced toxicity (MTT cell viability) [2] | AChE inhibitory efficacy (percentage of inhibition) [3] | MTT reduction (% control) [4] [%] | logD [5] | Neuroprotective effect against H2O2-induced toxicity (MTT cell viability) [6] | Log Pe (effective permeability) [7]
O=c1cc(-c2ccc(F)cc2)oc2cc(O)cc(O)c12 [Compound 7, 4′-Fluoro-5,7-dihydroxyflavone] | 23 | contrarily | n.i . | 109.4 ± 11.4 | > 2.5 | – | –
O=c1cc(-c2ccc(N3CCOCC3)cc2)oc2cc(O)cc(O)c12 [Compound 8, 5,7-Dihydroxy-4′-(morpholin-4-yl)flavone] | – | displayed relevant neuroprotective effects against Aβ1-42 | – | 57.6 ± 25.5 | > 2.5 | able to produce statistically significant differences when compared to H2O2 controls | –
O=c1cc(-c2ccc(F)cc2)oc2c([C@@H]3O[C@H](CO)[C@@H](O)[C@H](O)[C@H]3O)c(O)cc(O)c12 [Compound 18, 4′-Fluoro-8-(β-D-glucopyranosyl)-5,7-dihydroxyflavone] | – | – | – | 136.7 ±12.9 | -0.2 ± 0.1 | – | no detectable permeability; also recorded: Below detection limit
